Measured values published in ChEMBL document CHEMBL1201862, “PubChem BioAssay data set” (2004).
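Cultured in 96-well plates, cells were exposed to test compound for 48 hours across five concentrations. GI50 is the concentration that inhibits growth by half.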 The source made the active and inactive calls. Cut-off read from the data, not from the text of the source: active = GI50 up to about 1.1 µM and inactive = higher.

Tests used:
Assay in all cases: NCI-60 cell line screen, 48 h
PC-3 = tested on: PC-3
SR = tested on: SR
K562 = tested on: K562
OVCAR-8 = tested on: OVCAR-8
HOP-92 = tested on: HOP-92
MDA-MB-435 = tested on: MDA-MB-435
T47D = tested on: T47D
CCRF-CEM = tested on: CCRF-CEM
786-0 = tested on: 786-0
SK-MEL-5 = tested on: SK-MEL-5
SNB-19 = tested on: SNB-19
NCI-H522 = tested on: NCI-H522
UACC-62 = tested on: UACC-62
IGROV-1 = tested on: IGROV-1
SF-539 = tested on: SF-539
UO-31 = tested on: UO-31
NCI-H23 = tested on: NCI-H23
HCT-15 = tested on: HCT-15
DU-145 = tested on: DU-145
MDA-MB-231 = tested on: MDA-MB-231
A498 = tested on: A498
MCF7 = tested on: MCF7
HL-60 = tested on: HL-60
OVCAR-3 = tested on: OVCAR-3
HOP-62 = tested on: HOP-62
M14 = tested on: M14
SN12C = tested on: SN12C
OVCAR-4 = tested on: OVCAR-4
LOX IMVI = tested on: LOX IMVI
ACHN = tested on: ACHN
HT-29 = tested on: HT-29
CAKI-1 = tested on: CAKI-1
MOLT-4 = tested on: MOLT-4
UACC-257 = tested on: UACC-257
SF-295 = tested on: SF-295
SNB-75 = tested on: SNB-75
RPMI-8226 = tested on: RPMI-8226
OVCAR-5 = tested on: OVCAR-5
TK-10 = tested on: TK-10
SF-268 = tested on: SF-268
Malme-3M = tested on: Malme-3M
HCC 2998 = tested on: HCC 2998
COLO 205 = tested on: COLO 205
BT-549 = tested on: BT-549
MDA-N = tested on: MDA-N
EKVX = tested on: EKVX
SK-OV-3 = tested on: SK-OV-3
A549 = tested on: A549
RXF 393 = tested on: RXF 393
SK-MEL-2 = tested on: SK-MEL-2
NCI/ADR-RES = tested on: NCI/ADR-RES
KM12 = tested on: KM12
HCT-116 = tested on: HCT-116
NCI-H226 = tested on: NCI-H226
SW-620 = tested on: SW-620
SK-MEL-28 = tested on: SK-MEL-28
U-251 = tested on: U-251

Cc1ccc(OCC2OC(n3cnc4c(Br)nc(Br)nc43)CC2Oc2ccc(C)cc2)cc1 (configuration not stated)
GI50 (PC-3): 2.94 µM (inactive)
GI50 (SR): 1.96 µM (inactive)
GI50 (K562): 2.57 µM (inactive)
GI50 (OVCAR-8): 3.69 µM (inactive)
GI50 (HOP-92): 2.41 µM (inactive)
GI50 (MDA-MB-435): 5.85 µM (inactive)
GI50 (T47D): 10.8 µM (inactive)
GI50 (CCRF-CEM): 2.7 µM (inactive)
GI50 (786-0): 3.02 µM (inactive)
GI50 (SK-MEL-5): 6.31 µM (inactive)
GI50 (SNB-19): 7.31 µM (inactive)
GI50 (NCI-H522): 1.86 µM (inactive)
GI50 (UACC-62): 7.35 µM (inactive)
GI50 (IGROV-1): 5.04 µM (inactive)
GI50 (SF-539): 2.19 µM (inactive)
GI50 (UO-31): 14.3 µM (inactive)
GI50 (NCI-H23): 4.55 µM (inactive)
GI50 (HCT-15): 2.34 µM
GI50 (DU-145): 2.38 µM (inactive)
GI50 (MDA-MB-231): 2.12 µM (inactive)
GI50 (A498): 10.5 µM (inactive)
GI50 (MCF7): 4.32 µM (inactive)
GI50 (HL-60): 1.91 µM (inactive)
GI50 (OVCAR-3): 5.6 µM (inactive)
GI50 (HOP-62): 3.61 µM (inactive)
GI50 (M14): 2.59 µM (inactive)
GI50 (SN12C): 3.37 µM (inactive)
GI50 (OVCAR-4): 3.12 µM (inactive)
GI50 (LOX IMVI): 1.93 µM (inactive)
GI50 (ACHN): 2.32 µM (inactive)
GI50 (HT-29): 2.9 µM (inactive)
GI50 (CAKI-1): 1.97 µM (inactive)
GI50 (MOLT-4): 2.1 µM (inactive)
GI50 (UACC-257): 7.06 µM (inactive)
GI50 (SF-295): 8.49 µM (inactive)
GI50 (SNB-75): 3.09 µM (inactive)
GI50 (RPMI-8226): 9.29 µM (inactive)
GI50 (OVCAR-5): 12.3 µM (inactive)
GI50 (TK-10): 21.8 µM (inactive)
GI50 (SF-268): 12.9 µM (inactive)
GI50 (Malme-3M): 3.58 µM (inactive)
GI50 (HCC 2998): 2.6 µM (inactive)
GI50 (COLO 205): 4.06 µM (inactive)
GI50 (BT-549): 18.6 µM (inactive)
GI50 (MDA-N): 2.94 µM (inactive)
GI50 (EKVX): 2.05 µM (inactive)
GI50 (SK-OV-3): 14.5 µM (inactive)
GI50 (A549): 12.6 µM (inactive)
GI50 (RXF 393): 4.94 µM (inactive)
GI50 (SK-MEL-2): 2.75 µM (inactive)
GI50 (NCI/ADR-RES): 9.59 µM (inactive)
GI50 (KM12): 3.08 µM (inactive)
GI50 (HCT-116): 1.89 µM (inactive)
GI50 (NCI-H226): 14.6 µM (inactive)
GI50 (SW-620): 2.56 µM (inactive)
GI50 (SK-MEL-28): 4.51 µM (inactive)
GI50 (U-251): 2.24 µM (inactive)
